Data: patent publication US20140163082A1, “PYRAZOLYL COMPOUNDS FOR USE IN REVERSING REACTIVE GLIOSIS” (priority 2011, published 2014)

How the values were obtained:
[1] = test system: preretinal NV in OIR mouse model; experiment: Quantification of preretinal NV (H&E sections), OIR mouse model; type: in vivo, C57BL/6J mice; settings: OIR mice, double intravitreal injection YC-1 100 μM, P17, n=8; DMSO 61
Protocol: Retinal NV was induced in newborn mice as described previously. Briefly, P7 mice were exposed with their nursing mother, for 5 days [between P7 and P12] to hyperoxic conditions, by incubating them in an airtight chamber [PROOX 110 chamber O2 controller; Biospherix Ltd., Redfield, N.Y.] ventilated by a mixture of O2 and air to a final oxygen fraction of 75±2%. These incubation conditions induced vaso-obliteration and subsequent cessation of vascular development in the capillary beds of the central retina. At P12, the mice were allowed to recover in normal room air conditions and maintained for another 5 days [till P17], the day in which peak disease occurs. A condition of relative hypoxia resulted between P12 and P17, and extensive retinal NV developed in 100% of the mice. […]
Quantification of preretinal NV on P17 mice was performed as previously described. Briefly, 6-μm-thick serial sections were stained with hematoxylin and Eosin (H&E), then examined and scored in masked fashion for the presence of all nuclei extending beyond the ILM into the vitreous from the retina, by using light microscopy (Zeiss Axiovert 135, Thornwood, N.Y.). Efficacy of treatment was calculated as the percentage of the average number of nuclei/section in the eyes of YC-1-treated mice vs. DMSO-treated retinas. A minimum of 10 sections at least 40 μm apart were evaluated and counted per eye and then averaged. […]

rMC-1 cells [2] = experiment: Western blot, rMC-1; type: cell-based; settings: rMC-1, hypoxia 48 hours, YC-1 25-100 μM
Protocol: Cells were placed in airtight chambers [BioSpherix, Redfield, N.Y.] and the O2 tension was maintained at 1.2% by using Pro-Ox Model 110 O2 regulator [BioSpherix, Redfield, N.Y.]. The chamber was purged with a gas mixture of 5.32% CO2, and 93.48% N2. […] Müller cells [rMC-1] and […] cells were seeded overnight in 6-well plates [10^5 cells/well]. Cells were treated with either YC-1 [25-100 μM] or DMSO [0.2% v/v] for 48 hours under normoxic or hypoxic environments. Reactions were terminated by addition of lysis buffer [Cell Signaling, Beverly, Mass.]. Protein content of the cell lysates was determined according to the Bradford method [Bio-Rad, Hercules, Calif.]. Aliquots [40 μg] of whole-cell lysates were separated on 7.5% SDS-PAGE, and electro-transferred onto polyvinylidene membranes [Amersham Pharmacia Biotech, Little Chalfont]. After blocking with 5% nonfat dry milk in TBS-T, the blots were incubated overnight with anti-iNOS [at 1:100] and anti-β-actin [internal control] antibodies. Then blots were washed 3×10 min washes in PBS/tween and subsequently incubated with peroxidase-conjugated anti-mouse IgG secondary antibody at 1:3000. The signals were obtained by enhanced chemiluminescence [Amersham Biosciences], and visualized by exposure to X-ray film. Upon completion of chemiluminescence, equal lane loading was checked by Ponceau S Solution [Sigma, St. Louis, Mo.]. X-ray films were scanned with a computer-assisted densitometer [model G-710; Bio-Rad] to quantify band optical density [Quantity One software; Bio-Rad].

[3] = test system: human retinal microvascular EC; settings: refs [16, 17, 18]; cited from earlier work
rMC-1 cells [4] = test system: rMC-1 cells
rMC-1 cells [5] = experiment: GFAP immunofluorescence, rMC-1; type: cell-based; settings: for GFAP protein expression (immunofluorescence): vs hypoxic controls
Protocol: Cells were placed in airtight chambers [BioSpherix, Redfield, N.Y.] and the O2 tension was maintained at 1.2% by using Pro-Ox Model 110 O2 regulator [BioSpherix, Redfield, N.Y.]. The chamber was purged with a gas mixture of 5.32% CO2, and 93.48% N2. […] Müller cells [rMC-1] and […] cells [2×10^4 cells per well] were grown on 8-well chamber slides and cultured in 300 μl of their growing media, which contained YC-1 [25-100 μM] or DMSO [0.2% v/v] and incubated under normoxia or hypoxia for 48 hours at 37° C. YC-1 or DMSO was added 5 minutes prior to the hypoxic incubation. The cells were fixed 48 hours later with 3.7% paraformaldehyde and permeabilized with 0.2% TritonTM X-100 in PBS. The cells were incubated for two hours with anti-GFAP antibody. Negative control experiments consisted of omission of the primary antibody. Cells were then incubated with HRP-conjugate working solution, followed by the addition of the […] solution [TSA Kit#2 and #4 for rMC-1 and […] staining, respectively] at 1:100 dilutions [Molecular Probes, Carlsbad, Calif.]. Digitized images were acquired utilizing AxioVision software [Zeiss Axiovert 135 and AxioCam]. Intensity values of immunofluorescence staining of GFAP in rMC-1 and […] cells was analyzed and quantified using MetamorphTM imaging analysis software version 6.0 [Universal Imaging, Sunnyvale, Calif.]. The staining intensity in our series ranged from a weak blush to moderate or strong. The amount of cells staining with the antibody was further categorized as focal [<10%], patchy [10%-50%], and diffuse [>50%]. For semiquantitative analysis, focal and/or weak staining was considered equivocal staining, and patchy or diffuse staining was subcategorized as either moderate or strong.

[6] = rMC-1, 25 μM YC-1, hypoxia 48 hours

## OCc1ccc(-c2nn(Cc3ccccc3)c3ccccc23)o1 [YC-1, 3-(5′-hydroxymethyl-2′-furyl)-1-benzylindazole]
[1]
  average number of neovascular nuclei (pre-retinal, anterior to ILM): 11±1.8
rMC-1 cells [2]; vs DMSO-treated hypoxic cells
  HIF-1 protein level (Western blot): inhibited the hypoxia-induced upregulation
  PDGF-B protein level (Western blot): inhibited the hypoxia-induced upregulation
  VEGF protein level (Western blot): inhibited the hypoxia-induced upregulation
  iNOS protein level (Western blot): inhibited the hypoxia-induced upregulation
rMC-1 cells [2]; vs non-treated hypoxic cells
  GFAP protein level (Western blot): inhibited the hypoxia-induced GFAP protein levels in a dose-dependent manner
[3]
  HIF-1α, HIF-2α, VEGF, EPO, ET-1, and MMP-9 protein levels: down-regulates
rMC-1 cells [4]
  cell viability (DAPI exclusion): comprised the majority of cells
rMC-1 cells [5]; [6]
  GFAP cytoplasmic staining pattern/intensity (immunofluorescence): weaker equivocal staining intensity
  GFAP staining vs DMSO-treated hypoxic controls (immunofluorescence): remarkable inhibition
rMC-1 cells [5]; rMC-1, 50 μM YC-1, hypoxia
  GFAP protein expression (immunofluorescence): significant inhibitory effects
rMC-1 cells [5]; rMC-1, 75 μM YC-1, hypoxia
  GFAP protein expression (immunofluorescence): significant inhibitory effects
rMC-1 cells [5]; rMC-1, 100 μM YC-1, hypoxia
  GFAP staining remaining in cytoplasm (immunofluorescence): few stained regions
rMC-1 cells [5]; rMC-1, hypoxia, dose-dependent fashion
  GFAP protein levels (quantified staining intensity, FIG. 11C): significantly reduced
